Molecular target: T1, individually expressed C half of ABCR (Homo sapiens, UniProt P78363)
T1 construct: The cDNAs coding for the N-half (amino acids 1-1325) and C-half (amino acids 1326-2273) of ABCR; made in house; host or cells: COS-1 cells
T1 sequence (P78363 1326-2273): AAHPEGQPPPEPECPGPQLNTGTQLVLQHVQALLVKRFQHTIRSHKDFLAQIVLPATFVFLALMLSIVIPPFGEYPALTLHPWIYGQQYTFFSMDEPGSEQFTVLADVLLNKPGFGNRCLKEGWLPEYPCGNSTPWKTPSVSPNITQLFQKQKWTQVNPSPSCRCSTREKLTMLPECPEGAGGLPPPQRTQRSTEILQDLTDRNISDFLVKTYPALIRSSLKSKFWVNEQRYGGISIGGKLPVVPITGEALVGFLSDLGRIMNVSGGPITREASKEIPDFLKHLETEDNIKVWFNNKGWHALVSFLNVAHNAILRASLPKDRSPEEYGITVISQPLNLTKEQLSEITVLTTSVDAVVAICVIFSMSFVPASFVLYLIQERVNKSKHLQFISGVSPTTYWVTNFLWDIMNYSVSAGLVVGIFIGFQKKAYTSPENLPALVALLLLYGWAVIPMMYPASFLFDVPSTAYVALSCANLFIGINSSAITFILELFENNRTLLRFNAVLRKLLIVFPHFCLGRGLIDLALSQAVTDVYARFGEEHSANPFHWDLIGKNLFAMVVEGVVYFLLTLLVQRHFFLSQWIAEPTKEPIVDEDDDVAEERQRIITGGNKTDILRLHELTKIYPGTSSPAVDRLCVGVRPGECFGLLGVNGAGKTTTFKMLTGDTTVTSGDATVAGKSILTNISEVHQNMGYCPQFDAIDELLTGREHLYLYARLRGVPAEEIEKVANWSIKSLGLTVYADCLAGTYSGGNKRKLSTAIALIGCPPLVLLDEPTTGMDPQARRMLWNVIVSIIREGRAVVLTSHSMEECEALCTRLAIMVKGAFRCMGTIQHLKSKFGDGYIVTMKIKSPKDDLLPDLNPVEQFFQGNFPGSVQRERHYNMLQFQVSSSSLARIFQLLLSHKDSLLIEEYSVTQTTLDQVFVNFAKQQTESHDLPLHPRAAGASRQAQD
Experiment: Retinal-stimulated ATPase activity of purified protein reconstituted in lipid vesicles
Assay type: biochemical
Details: individually expressed in COS-1 cells, 50 μM [α32P]ATP
Method: Membranes (from two 10 cm dishes) were solubilized in 0.5 ml of 1% Triton-X100 in Buffer A (140 mM NaCl, 20 mM Tris-HCl, pH 7.4) for 20 min on ice. For ATPase assays, the membrane preparation step was omitted and the cell suspension was solubilized directly in Buffer B (10 mg/ml soybean phospholipids, 10% glycerol, 1 mM dithiothreitol, 100 mM NaCl, 3 mM MgCl2, 50 mM NaHEPES, pH 7.4) containing 18 mM CHAPS. The supernatant after a 10 min centrifugation at 40,000 rpm (TLA100.4 rotor) was mixed with 50 μl Rim3F4 Sepharose 2B for 1 h at 4° C. The beads were washed 6 times in Buffer A containing 0.2% Triton X-100 or Buffer B containing 10 mM CHAPS and eluted with 4% SDS (for electrophoresis) or 0.2 mg/ml Rim3F4 peptide (for reconstitution and determination of ATPase activity). Purified protein (24 μl) was incubated with 6 μl of 50 mg/ml lipid (1:1 mixture of dioleoylphosphatidylethanolamine and brain polar lipid, by weight) and 3 μl n-octylglucoside for 30 min on ice. The mixture was diluted rapidly with 200 μl of Buffer C (1 mM dithiothreitol, 140 mM NaCl, 25 mM NaHEPES, pH 7.4) and passed through a 200 μl Extracti-gel column (Pierce). The flow-through containing the reconstituted protein was used for determination of ATPase activity.
ATPase activity was measured as described previously (Ahn, J., Wong, J. T., and Molday, R. S. (2000) J Biol Chem 275(27), 20399-405) using 50 μM [α^32P]ATP and thin layer chromatography. The all-trans retinal concentration was determined spectrophotometrically (λ383 nm=42.88 mM^−1 cm^−1). Protein concentration was estimated from the eluate before reconstitution by laser densitometry of Coomassie blue stained gels using bovine serum albumin as a standard. […] Direct protein measurements after reconstitution by densitometry of Western blots was about half of that in the eluate. […]
ATPase Activity of Expressed N and C Halves—The basal and retinal activated ATPase activity of full-length ABCR and the N and C halves individually or co-expressed in COS-1 cells was determined after immunoaffinity purification and reconstitution into lipid vesicles. […]

stimulation of ATPase activity: not stimulated
Structure (SMILES): CC1=C(/C=C/C(C)=C/C=C/C(C)=C/C=O)C(C)(C)CCC1 [all-trans retinal]

Source: patent US20060110790A1, “Expression system for large functional proteins” (priority 2002, published 2006)
